Assay [1] in a line: Binding affinity to recombinant TetR(D) expressed in Escherichia coli RB791 by SPR analysis. (In SPR one partner is held on a chip, and binding of the other changes the refractive index at the surface.)
Assay [2] can be described thus: Binding affinity to recombinant TetR(D) expressed in Escherichia coli RB791 by fuorescence assay.

SMILES strings stand for the structures.

In ChEMBL document CHEMBL1806395, “Recognition of drug degradation products by target proteins: isotetracycline binding to Tet repressor” (J Med Chem, 2011) one finds Ka data, which are given here for two molecules.

For the molecule `CN(C)[C@@H]1C(O)=C(C(N)=O)C(=O)[C@@]2(O)C(O)=C3C(=O)c4c(O)ccc(Cl)c4[C@@](C)(O)[C@H]3C[C@@H]12`, the values for the Ka in assay [1] and in assay [2] were 2.36 µM⁻¹ and 2.3 µM⁻¹, respectively.
Regarding `CN(C)[C@@H]1C(O)=C(C(N)=O)C(=O)[C@@]2(O)C(O)=C[C@@H]([C@]3(C)OC(=O)c4c(O)ccc(Cl)c43)C[C@@H]12`, in assay [1], the Ka worked out at 0.8 µM⁻¹.
